According to ChEMBL document CHEMBL1122420, “Parasympatholytic (anticholinergic) esters of the isomeric 2-tropanols. 2. Non-glycolates” (J Med Chem, 1983):

Experiments:
[1] = LD50 in mice following i.v. administration.; format: organism-based; settings: mouse, in vivo, iv
[2] = tested on: Mus musculus; assay: Induction of mydriasis in mice following s.c. administration.; format: functional; settings: sc

Row | Structure (SMILES) | LD50 [1] | ED50 [2]
1 | CN1C2CCC1[C@H](OC(=O)N1c3ccccc3Sc3cccnc31)CC2 (single isomer, unassigned; (+)) | 32 mg/kg | 5.6 mg/kg
2 | CN1C2CCC1[C@H](OC(=O)C(CO)c1ccccc1)CC2 (single isomer, unassigned; (+)) | 50 mg/kg | 0.1 mg/kg
3 | CCCC(C(=O)O[C@@H]1CCC2CCC1N2C)(c1ccccc1)c1ccccc1 (single isomer, unassigned; (+)) | 18 mg/kg | > 10 mg/kg
4 | CN1C2CCC1[C@H](OC(=O)C1c3ccccc3CCc3ccccc31)CC2 (single isomer, unassigned; (+)) | 32 mg/kg | 5.6 mg/kg
5 | COc1cc(C(=O)O[C@@H]2CCC3CCC2N3C)cc(OC)c1OC (single isomer, unassigned; (+)) | 56 mg/kg | 32 mg/kg
6 | CCCOC(C(=O)O[C@@H]1CCC2CCC1N2C)(c1ccccc1)c1ccccc1 (single isomer, unassigned; (+)) | 22 mg/kg | 0.94 mg/kg
7 | CN1C2CCC1[C@H](OC(=O)C(F)(c1ccccc1)c1ccccc1)CC2 (single isomer, unassigned; (+)) | 36 mg/kg | 0.25 mg/kg
8 | CN1C2CCC1[C@H](OC(=O)C13CC4CC(CC(C4)C1)C3)CC2 (single isomer, unassigned; (+)) | 32 mg/kg | > 10 mg/kg
9 | CN1C2CCC1[C@H](OC(=O)c1cc(=O)c3ccccc3o1)CC2 (single isomer, unassigned; (+)) | 100 mg/kg | > 10 mg/kg
10 | CN1C2CCC1[C@H](OC(=O)CC(O)(c1ccccc1)c1ccccc1)CC2 (single isomer, unassigned; (+)) | 18 mg/kg | > 10 mg/kg
11 | CN1C2CCC1[C@H](OC(=O)C(Cl)(c1ccccc1)c1ccccc1)CC2.Cl (single isomer, unassigned; (+)) | 22 mg/kg | 0.03 mg/kg
12 | CN1C2CCC1[C@H](OC(=O)C(OCc1ccccc1)(c1ccccc1)c1ccccc1)CC2.Cl (single isomer, unassigned; (+)) | 56 mg/kg | 5.6 mg/kg
13 | CN1C2CCC1[C@@H](OC(=O)C1c3ccccc3CCc3ccccc31)CC2 (single isomer, unassigned; (-)) | 18 mg/kg | > 10 mg/kg
14 | COc1cc(C(=O)O[C@H]2CCC3CCC2N3C)cc(OC)c1OC (single isomer, unassigned; (-)) | 18 mg/kg | > 10 mg/kg
15 | CN1[C@@H]2CC[C@H]1C[C@@H](OC(=O)C(CO)c1ccccc1)C2 (stereo not given in full) [ATROPINE] | – | 0.061 mg/kg
16 | CN1[C@@H]2C[C@@H](OC(=O)[C@H](CO)c3ccccc3)C[C@H]1[C@@H]1O[C@@H]12 [SCOPOLAMINE] | – | 0.012 mg/kg
